{"source": "patent US11149008B2", "about": "“Sulfamide derivatives and preparation method and use thereof” (HitGen Ltd., priority 2015, dated 2021)", "key": {"[1]": {"molecular_target": "T1, HDAC 6 (Homo sapiens, UniProt Q9UBN7)", "T1 construct": "purchased BPS Bioscience #50076", "T1 sequence (Q9UBN7 1-1215)": "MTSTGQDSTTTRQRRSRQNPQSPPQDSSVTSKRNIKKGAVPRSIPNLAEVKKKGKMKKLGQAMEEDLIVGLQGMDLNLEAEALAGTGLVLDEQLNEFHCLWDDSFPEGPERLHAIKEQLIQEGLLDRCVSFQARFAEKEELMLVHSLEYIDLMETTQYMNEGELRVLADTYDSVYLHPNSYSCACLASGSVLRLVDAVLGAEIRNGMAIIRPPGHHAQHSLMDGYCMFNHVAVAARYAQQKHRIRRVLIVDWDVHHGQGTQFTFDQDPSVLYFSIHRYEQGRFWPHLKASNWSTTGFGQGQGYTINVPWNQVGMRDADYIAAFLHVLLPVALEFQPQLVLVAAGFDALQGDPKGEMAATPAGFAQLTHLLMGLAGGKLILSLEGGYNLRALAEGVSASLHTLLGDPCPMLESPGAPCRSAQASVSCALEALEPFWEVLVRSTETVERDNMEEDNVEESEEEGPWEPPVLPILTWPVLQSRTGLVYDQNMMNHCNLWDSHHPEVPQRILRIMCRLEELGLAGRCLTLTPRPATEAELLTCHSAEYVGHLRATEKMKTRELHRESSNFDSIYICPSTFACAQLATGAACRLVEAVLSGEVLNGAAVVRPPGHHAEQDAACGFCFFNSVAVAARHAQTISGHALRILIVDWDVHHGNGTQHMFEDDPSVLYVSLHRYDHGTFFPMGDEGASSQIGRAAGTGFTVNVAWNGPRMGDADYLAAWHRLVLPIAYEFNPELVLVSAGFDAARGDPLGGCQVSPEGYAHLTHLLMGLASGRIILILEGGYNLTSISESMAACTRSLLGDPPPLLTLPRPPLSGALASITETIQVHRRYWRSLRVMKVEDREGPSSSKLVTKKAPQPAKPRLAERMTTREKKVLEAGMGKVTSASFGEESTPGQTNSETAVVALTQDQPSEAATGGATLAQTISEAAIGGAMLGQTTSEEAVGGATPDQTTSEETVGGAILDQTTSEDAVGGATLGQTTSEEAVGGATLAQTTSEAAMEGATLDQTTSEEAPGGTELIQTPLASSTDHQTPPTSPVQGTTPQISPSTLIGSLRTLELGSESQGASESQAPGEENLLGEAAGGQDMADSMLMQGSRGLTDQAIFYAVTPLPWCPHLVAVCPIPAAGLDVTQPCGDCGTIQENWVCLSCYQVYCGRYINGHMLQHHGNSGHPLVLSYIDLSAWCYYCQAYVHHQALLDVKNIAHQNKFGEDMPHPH", "experiment": "Enzyme activity detection of histone deacetylase 6 (fluorogenic substrate deacetylation)", "type": "biochemical", "details": "0.35 ng/μL HDAC 6, 20 μM substrate, 30 min at 37° C.; IC50 class", "description": "(§1) During the deacetylation detection of a substrate, the HDAC inhibition activity of the compound of the present invention was detected.\nA: Enzyme Activity Detection of Histone Deacetylase 6 (#50076, BPS Bioscience)\n(§2) Acetyl on the substrate was removed by the HDAC 6, so that the substrate was activated, and the developing liquid added subsequently could act on the substrate to release the fluorescent group. The size of the fluorescence signal reflected the activity of the HDAC 6. The IC50 detection method for this enzyme was disclosed in Chuping Xu, Elisabetta Soragni Improved Histone Deacetylase Inhibitors as Therapeutics for the Neurdegenerative Disease Friedreich's Ataxia: A New Synthetic Route. The total reaction system (100 μL/well) contained 0.35 ng/μL of HDAC 6, 20 μM of the substrate and the compound in different concentrations. The reaction system was incubated for 30 min at 37° C., and the fluorescence signal was then measured. The inhibition effect of the compound was determined from the obtained data, a concentration response curve was obtained by using the inhibition effect and the concentration of the compound, and the value of IC50 was fitted according to a four-parameter model.\n(§3) The activities of the compounds prepared in the embodiments against the histone deacetylases 1, 3 and 6 (i.e., HDAC 1, HDAC 3 and HDAC 6) were detected by the above methods, and the test results were shown in Table 2, where the measurements of IC50 of the compounds were classified according to the following description: […]"}, "[2]": {"molecular_target": "T2, HDAC 3 (Homo sapiens, UniProt O15379)", "T2 construct": "purchased BPS Bioscience #50003", "T2 sequence (O15379 whole entry)": "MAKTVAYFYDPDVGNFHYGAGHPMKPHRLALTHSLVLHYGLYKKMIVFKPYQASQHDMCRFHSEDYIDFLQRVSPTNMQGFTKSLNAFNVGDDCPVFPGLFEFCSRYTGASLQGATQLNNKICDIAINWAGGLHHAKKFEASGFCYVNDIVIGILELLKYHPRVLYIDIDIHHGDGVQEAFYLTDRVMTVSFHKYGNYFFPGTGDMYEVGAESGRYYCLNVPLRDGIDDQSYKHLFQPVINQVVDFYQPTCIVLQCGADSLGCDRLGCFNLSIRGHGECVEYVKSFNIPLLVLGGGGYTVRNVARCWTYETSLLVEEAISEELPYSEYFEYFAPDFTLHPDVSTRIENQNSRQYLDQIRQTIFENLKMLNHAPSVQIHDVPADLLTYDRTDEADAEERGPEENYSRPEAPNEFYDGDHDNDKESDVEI", "T2 sequence (Q9Y618 395-489 partner limits assumed)": "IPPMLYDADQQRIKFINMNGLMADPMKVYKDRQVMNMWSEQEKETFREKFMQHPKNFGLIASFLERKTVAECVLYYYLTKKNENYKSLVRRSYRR", "experiment": "Enzyme activity detection of histone deacetylase 3 (fluorogenic substrate deacetylation)", "type": "biochemical", "details": "0.16 ng/μL HDAC 3, 10 μM substrate; IC50 class", "description": "as §1\nB: Enzyme Activity Detection of Histone Deacetylase 3 (#50003, BPS Bioscience)\nas §2, with “3,” for “6,”, “3.” for “6.”, “0.16” for “0.35”, “3, 10” for “6, 20”, “The” for “The reaction system was incubated for 30 min at 37° C., and the”, “detected online at Ex/Em=360/460.” for “then measured.”\nas §3"}, "[3]": {"tested_on": "HepG2 cells", "experiment": "Cell growth inhibition measurement (CCK-8), HepG2", "type": "cell-based", "details": "Homo sapiens, HepG2, 72 h, highest EC50 measured during one or multiple operations, read-out: Inhibition activity against cancer cells, HepG2 (EC50)", "description": "(§4) A HepG2 cell strain and an HCT-116 cell strain were purchased from Shanghai Institutes for Biological Sciences; a DMEM high-sugar culture medium and an MEM culture medium were purchased from Hyclone; fetal calf serum was purchased from Gibco; trypsin was purchased from Invitrogen Shanghai; a CCK-8 kit was purchased from Beyotime Institute of Biotechnology; and, the remaining cell culture mediums and other consumables were purchased from Corning China.\n(§5) HepG2 cells and HCT-116 cells in the logarithmic growth phase were digested by trypsin. After the counting of uniform cell suspension, the cell density was adjusted as 1500 cells/well by a culture medium containing 10% serum. The cells were re-inoculated to a 96-well cell culture plate, and cultured to a volume of 200 μL at 37° C. in an incubator containing 5% CO2. The cells could be tested after being cultured for 24 h.\n(§6) The cells cultured for 24 h were taken out from the incubator. The culture liquid in the well plate was sucked out, and 200 μL of compound solution prepared in the culture medium containing 10% fetal calf serum was added in each well. Five parallel mediums were provided for each concentration, and a DMSO culture medium was used as negative control. The culture mediums were cultured for 72 h at 37° C. in an incubator containing 5% CO2, and CCK-8 detection was performed.\n(§7) A serum-free culture medium and CCK-8 solution were prepared, and CCK-8 working solution was prepared at a ratio of 10:1 (this process should be performed in dark place).\n(§8) The cells cultured for 72 h were taken out from the incubator. The culture liquid in the well plate was sucked out, and 120 μL of the CCK-8 working solution was added in each well. A well plate without cells was also added with 120 μL of the CCK-8 working solution to serve as blank control. The well plates were cultured for 1 h at 37° C. in an incubator containing 5% CO2 (this process should be performed in dark place).\n(§9) The well plates were taken out from the incubator, 100 μL of solution in each well was sucked out and added in a new 96-well plate, and the absorbance was measured at 450 nm (this process should be performed in dark place).\n(§10) where Tx is the absorbance of the CCK-8 after the compound acts for 72 h;\n(§11) C is the absorbance of the CCK-8 after the negative control wells are cultured for 72 h; and\n(§12) B is the absorbance of the CCK-8 in the blank control wells.\n(§13) The test results of the compounds prepared according to the embodiments during the measurement are shown in Table 3, wherein the measured highest EC50 of the compounds during one operation or multiple operations is classified according to the following description: […]"}, "[4]": {"molecular_target": "HDAC 1 (Homo sapiens, UniProt Q13547)", "sequence (Q13547 whole entry, species assumed)": "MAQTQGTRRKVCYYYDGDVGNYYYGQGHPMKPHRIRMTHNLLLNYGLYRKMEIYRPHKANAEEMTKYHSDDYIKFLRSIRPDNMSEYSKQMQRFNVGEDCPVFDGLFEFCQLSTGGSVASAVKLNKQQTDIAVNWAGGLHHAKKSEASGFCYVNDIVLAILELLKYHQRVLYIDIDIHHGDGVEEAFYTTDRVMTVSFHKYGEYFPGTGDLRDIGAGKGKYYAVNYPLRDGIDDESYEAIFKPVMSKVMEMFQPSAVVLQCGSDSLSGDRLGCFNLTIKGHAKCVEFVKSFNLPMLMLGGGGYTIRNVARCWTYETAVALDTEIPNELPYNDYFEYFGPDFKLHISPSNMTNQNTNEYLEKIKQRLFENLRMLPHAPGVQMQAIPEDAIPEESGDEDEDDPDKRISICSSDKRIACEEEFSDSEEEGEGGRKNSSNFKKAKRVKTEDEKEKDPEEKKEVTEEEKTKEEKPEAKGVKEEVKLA", "experiment": "Enzyme activity detection of histone deacetylase 1 (fluorogenic substrate deacetylation)", "type": "biochemical", "details": "0.28 ng/μL HDAC 1, 10 μM substrate; IC50 class", "description": "as §1\nC: Enzyme Activity Detection of Histone Deacetylase 1\nas §2, with “1,” for “6,”, “1.” for “6.”, “0.28” for “0.35”, “1, 10” for “6, 20”, “The” for “The reaction system was incubated for 30 min at 37° C., and the”, “detected online at Ex/Em=360/460.” for “then measured.”\nas §3"}, "[5]": {"tested_on": "HCT-116 cells", "experiment": "Cell growth inhibition measurement (CCK-8), HCT-116", "type": "cell-based", "details": "Homo sapiens, HCT-116, 72 h, highest EC50 measured during one or multiple operations, read-out: Inhibition activity against cancer cells, HCT-116 (EC50)", "description": "as §4, §5, §6, §7, §8, §9, §10, §11, §12, §13"}}, "data": [{"smiles": "O=C(NO)C1=CCN(S(=O)(=O)c2ccc(-c3cnn(C4CCNCC4)c3)cc2)CC1", "note": "[Compound 1, N-hydroxyl-1-((4-(1-(piperidine-4-yl)-1H-pyrazol-4-yl)phenyl)sulfonyl)-1,2,3,6-tetrahydropyridine-4-formamide]", "values": [{"measurement": "IC50", "setting": "[1]", "result": "< 100", "unit": "nM"}, {"measurement": "IC50", "setting": "[2]", "result": "100 to 500", "unit": "nM"}, {"measurement": "EC50", "setting": "[3]", "result": "> 100", "unit": "nM"}]}, {"smiles": "O=C(NO)C1=CCN(S(=O)(=O)c2ccc(-c3ccc(O)cc3)cc2)CC1", "note": "[Compound 2, N-hydroxyl-1-((4′-hydroxyl-[1,1′-biphenyl]-4-yl)sulfonyl)-1,2,3,6-tetrahydropyridine-4-formamide]", "values": [{"measurement": "IC50", "setting": "[1]", "result": "< 100", "unit": "nM"}, {"measurement": "IC50", "setting": "[2]", "result": "100 to 500", "unit": "nM"}, {"measurement": "EC50", "setting": "[3]", "result": "< 100", "unit": "nM"}]}, {"smiles": "O=C(NO)C1=CCN(S(=O)(=O)c2ccc(-c3ccc(CN4CCCCC4)cc3)cc2)CC1", "note": "[Compound 19, N-hydroxyl-1-((4′-(piperidine-1-ylmethyl)-[1,1′-biphenyl]-4-yl)sulfonyl)-1,2,3,6-tetrahydropyridine-4-formamide]", "values": [{"measurement": "IC50", "setting": "[1]", "result": "< 100", "unit": "nM"}, {"measurement": "IC50", "setting": "[4]", "result": "< 100", "unit": "nM"}, {"measurement": "EC50", "setting": "[3]", "result": "< 100", "unit": "nM"}, {"measurement": "EC50", "setting": "[5]", "result": "< 100", "unit": "nM"}]}, {"smiles": "CN1CCN(c2ccc(-c3ccc(S(=O)(=O)N4CCC=C(C(=O)NO)CC4)cc3)cc2)CC1", "note": "[Compound 44, N-hydroxyl-1-((4′-(4-methylpiperazine-1-yl)-[1,1′-biphenyl]-4-yl)sulfonyl)-2,3,6,7-tetrahydro-1H-aza-4-formamide]", "values": [{"measurement": "IC50", "setting": "[1]", "result": "< 100", "unit": "nM"}, {"measurement": "IC50", "setting": "[2]", "result": "100 to 500", "unit": "nM"}, {"measurement": "IC50", "setting": "[4]", "result": "100 to 500", "unit": "nM"}, {"measurement": "EC50", "setting": "[3]", "result": "> 100", "unit": "nM"}]}]}
